Test system: Murine colon carcinoma CT26
Experiment: Antitumour efficacy after intratumoral treatment of CT26 tumours
Type: in vivo, Balb/cJRj mice
Description: Healthy Balb/cJRj mice were injected with 100 μL of Murine colon carcinoma CT26 cancer cells (3×105) in RPMI media subcutaneously on the right flank. Mice bearing tumors with volumes between 50 and 200 mm^3 were randomized and rearranged into new cages by blocking for initial tumor volume, and each cage received one of the four treatments described in Table 2 administered intratumorally (50 μL). A total of 3 injections, separated by 7 days each, were made for each treatment.
83 days after the first tumor inoculation, the surviving mice were re-challenged by a second inoculation of CT26 cancers cells (same dose) on the left flank of the mice along with a control group getting their first inoculation. The mice were monitored for weight and their tumors were measured using an electronic caliper twice a week, and fluorescence imaging was performed at regular intervals for all formulations containing Cy7 moieties. […] Humane endpoints included general signs of misthriving mice, significant weight loss (15% of initial weight or 10% overnight weight loss), or presence of tumor wounds larger than 8 mm.

In the case of `CCOCc1nc2c(N)nc3ccccc3c2n1CCCN` [TLR7/8a, 4-Amino-2-(ethoxymethyl)-1H-imidazo[4,5-c]quinoline-1-propanamine], the “antitumour activity / improvement versus control” value (intratumoral treatment) is reported as “potential minor improvement in tumour treatment compared to the control”, the “averaged slope coefficient for the tumour growth plots (tumour growth rate)” value (mouse, in vivo) is reported as “positive” and the “mice recovered from the tumour” value (six mice per group, 3 intratumoral injections 7 days apart) is reported as “two out of six mice recovered”.

— patent publication US20260232815A1, “COPOLYMER-DRUG CONJUGATE FOR TREATMENT OF TUMOURS” (Danmarks Tekniske Universitet, priority 2023, published 2026)
